Measurements reported in the CheMixHub viscosity set.

Assay: xn = mol fraction of the nth substance listed

CCc1ccccc1 + CN(C)C=O
viscosity [mPa·s], 101.33 kPa
Settings	303.15 K	313.15 K
x2 = 0.0997	0.597	0.542
x2 = 0.1996	–	0.556
x2 = 0.1997	0.614	–
x2 = 0.2997	–	0.568
x2 = 0.2999	0.631	–
x2 = 0.4154	0.652	0.584
x2 = 0.5109	0.667	0.597
x2 = 0.584	0.679	0.608
x2 = 0.6991	0.696	0.625
x2 = 0.8014	0.709	0.641
x2 = 0.8872	0.719	0.652

Clc1ccccc1 + CN(C)C=O
viscosity [mPa·s], 101.33 kPa
Settings	x2 = 0.1076	x2 = 0.2986	x2 = 0.397	x2 = 0.5024	x2 = 0.6054	x2 = 0.7013	x2 = 0.7925	x2 = 0.8973
303.15 K	0.731	0.76	0.767	–	0.773	0.774	0.771	0.754
313.15 K	–	–	0.69	0.694	0.695	0.694	0.688	–

N#CCCCCC#N + CN(C)C=O
303.15 K, 101.33 kPa
Settings	viscosity [mPa·s]
x1 = 0.1051	0.9087
x1 = 0.2983	1.335
x1 = 0.3971	1.636
x1 = 0.4957	2.001
x1 = 0.5919	2.413
x1 = 0.6983	2.957
x1 = 0.8486	3.821

OCCCCCO + CN(C)C=O
308.15 K, 101 kPa
Settings	viscosity [mPa·s]
x1 = 0.025	0.759
x1 = 0.0483	0.826
x1 = 0.1005	1.025
x1 = 0.1877	1.446
x1 = 0.2971	2.284
x1 = 0.388	3.676
x1 = 0.4882	5.774
x1 = 0.586	9.073
x1 = 0.6875	14.59
x1 = 0.7802	22.71
x1 = 0.9446	49.91
x1 = 0.9714	56.42

CCOP(=O)(OCC)OCC + CNC=O
298.15 K, 101.3 kPa
Settings	viscosity [mPa·s]
x1 = 0.0969	1.719
x1 = 0.1954	1.713
x1 = 0.294	1.689
x1 = 0.399	1.654
x1 = 0.5004	1.625
x1 = 0.5987	1.599
x1 = 0.6978	1.571
x1 = 0.799	1.546
x1 = 0.8929	1.524

CCCCn1cc[n+](C)c1.F[P-](F)(F)(F)(F)F + CO
Settings	viscosity [mPa·s]
298.15 K, 101 kPa, x1 = 0.7082	45.95

CCc1ccccc1 + CO
viscosity [mPa·s], 101 kPa
Settings	x2 = 0.1406	x2 = 0.3326	x2 = 0.5278	x2 = 0.6721	x2 = 0.7828	x2 = 0.8113	x2 = 0.8848
298.15 K	0.6135	0.6134	0.6258	0.6323	0.6247	0.618	0.5991
308.15 K	0.5262	0.5283	0.5395	0.5368	0.525	0.5202	0.5052

COC(C)(C)C + CO
298.15 K
Settings	viscosity [mPa·s]
101 kPa, x1 = 0.0512	0.547
101 kPa, x1 = 0.0994	0.536
101 kPa, x1 = 0.1991	0.488
101 kPa, x1 = 0.3011	0.455
101 kPa, x1 = 0.4015	0.436
101 kPa, x1 = 0.4993	0.42
101 kPa, x1 = 0.6001	0.402
101 kPa, x1 = 0.7001	0.387
101 kPa, x1 = 0.8007	0.376
101 kPa, x1 = 0.8998	0.366
101 kPa, x1 = 0.9494	0.36
101.33 kPa, x1 = 0.0048	0.549
101.33 kPa, x1 = 0.0234	0.547
101.33 kPa, x1 = 0.0483	0.544
101.33 kPa, x1 = 0.0818	0.535
101.33 kPa, x1 = 0.1136	0.526
101.33 kPa, x1 = 0.1601	0.51
101.33 kPa, x1 = 0.1987	0.496
101.33 kPa, x1 = 0.2377	0.483
101.33 kPa, x1 = 0.2656	0.475
101.33 kPa, x1 = 0.3162	0.462
101.33 kPa, x1 = 0.3736	0.446
101.33 kPa, x1 = 0.4299	0.433
101.33 kPa, x1 = 0.481	0.42
101.33 kPa, x1 = 0.5141	0.413
101.33 kPa, x1 = 0.5796	0.399
101.33 kPa, x1 = 0.6163	0.394
101.33 kPa, x1 = 0.7002	0.382
101.33 kPa, x1 = 0.7768	0.37
101.33 kPa, x1 = 0.8313	0.363
101.33 kPa, x1 = 0.898	0.356
101.33 kPa, x1 = 0.9429	0.346
